Laboratory results from patent US20220023282A1 (priority 2018, published 2022).
≈ marks a conversion by molar mass, not a printed value.

What was measured:
A549 = experiment: Cell viability (MTT) of pulmonary epithelial cells; format: cell-based
Protocol: (§1) MTT is the tetrazolium dye 3-(4,5-dimethylthiazol-2-yl)-2,5-diphenyltetrazolium bromide which is converted by mitochondrial reductase to its insoluble formazan. In living cells, the insoluble formazan can be dissolved by adding the detergent dimethylsulfoxide for 15 minutes. The absorption of the respective dye is measured by a plate-reader at 590 nm. For the calculation of the viability after the incubation of the test compounds a positive and a negative control is included. Hank's balanced salt solution (HBSS) is used as a negative control and the resulting absorbance value is set to 100% viability. The positive control (1% Triton-X-100) is used to set 0% viability. Accordingly, the IC50 value of the test formulation can be determined by measuring a dose-response curve in log-scale.
(§2) These formulations (designated as 100%) were diluted with HBSS to give the following formulations for testing:
(§3) Cells were treated with the test formulations for 4 hours at 37° C. The viability of the cells after exposure was used to set up a dose-response curve in logarithmic scale. A sigmoidal fit enables the IC20, IC50, and IC80 calculations of the test substances.

Calu-3 = experiment: Cell viability (MTT) of pulmonary epithelial cells; format: cell-based
Protocol: as §1, §2, §3

[1] = tested on: Mycobacterium tuberculosis H37Rv; conditions: standardized broth-dilution assay; cited from earlier work
M. avium [2] = conditions: cited from earlier work
M. abscessus [3] = conditions: cited from earlier work
M. abscessus [4] = conditions: cited from earlier work; remark: listed apart in the source
M. ulcerans = conditions: cited from earlier work
M. marinum = conditions: cited from earlier work
M. smeqmatis mc2 155 = conditions: cited from earlier work
M. avium [5] = conditions: cited from earlier work; remark: listed apart in the source
M. kansasii = conditions: cited from earlier work
M. fortuitum = conditions: cited from earlier work
M. chelonae = conditions: cited from earlier work
M. maqeritense = conditions: cited from earlier work
M. phlei = conditions: cited from earlier work
M. vaccae = conditions: cited from earlier work
M. malmoense = conditions: cited from earlier work
M. qordonae = conditions: cited from earlier work
M. simiae = conditions: cited from earlier work
M. scrofulaceum = conditions: cited from earlier work
M. hiberniae = conditions: cited from earlier work
[6] = tested on: Drug-susceptible M. tuberculosis; conditions: cited from earlier work
MOR M. tuberculosis = conditions: cited from earlier work
[7] = in vivo, cited from earlier work
[8] = human, in vivo, 400 mg; cited from earlier work

In the case of COc1nc2ccc(Br)cc2cc1[C@@H](c1ccccc1)[C@@](O)(CCN(C)C)c1cccc2ccccc12 [bedaquiline, (1R,2S)-1-(6-bromo-2-methoxyquinolin-3-yl)-4-(dimethylamino)-2-(naphthalen-1-yl)-1-phenylbutan-2-ol], the “cytotoxic effect on cell viability as compared with vehicle” value (A549) is listed as “minimal cytotoxic effect”, the “cytotoxic effect on cell viability as compared with vehicle” value (Calu-3) is listed as “minimal cytotoxic effect” and the MIC99 [1] is listed as 0.015 to 0.12 µg/mL. The MIC99 (M. avium [2]) was 0.01 to 0.03 µg/mL, the MIC99 (M. abscessus [3]) was 0.25 to 0.5 µg/mL and the MIC (M. abscessus [4]) was 0.25 µg/mL (≈ 0.45 µM). For the same molecule, the MIC (M. ulcerans) was 0.5 µg/mL (≈ 0.9 µM), the MIC (M. marinum) was 0.003 µg/mL (≈ 0.0054 µM) and the MIC (M. smeqmatis mc2 155) was 0.12 µg/mL (≈ 0.216 µM). For the same molecule, the MIC (M. avium [5]) was 0.03 to 0.13 µg/mL, the MIC (M. kansasii) was 0.03 µg/mL (≈ 0.054 µM) and the MIC (M. fortuitum) was 0.13 to 0.25 µg/mL. The MIC (M. chelonae) was 0.06 to 0.5 µg/mL, the MIC (M. maqeritense) was 0.03 µg/mL (≈ 0.054 µM) and the MIC (M. phlei) was 0.03 to 0.13 µg/mL. For the same molecule, the MIC (M. vaccae) was 0.03 µg/mL (≈ 0.054 µM), the MIC (M. malmoense) was 0.50 µg/mL (≈ 0.9 µM) and the MIC (M. qordonae) was 0.03 µg/mL (≈ 0.054 µM). For the same molecule, the MIC (M. simiae) was 0.03 µg/mL (≈ 0.054 µM), the MIC (M. scrofulaceum) was 0.03 µg/mL (≈ 0.054 µM) and the MIC (M. hiberniae) was 0.03 µg/mL (≈ 0.054 µM). For the same molecule, the MIC [6] was 0.06 µg/mL (≈ 0.108 µM), the MIC (MOR M. tuberculosis) was 0.06 µg/mL (≈ 0.108 µM) and the “time to maximal plasma concentration after administration” value ([7]; po) was 4 to 6 h. The effective half-life [7] was 24 h, the “half life in tissues” value [7] was “more than 5 months” and the terminal half life [7] was 5.5 months. The “Cmax in the sputum” value [8] was 5000 ng/mL.
